Source: patent publication US20190315823A1, “SMALL CATIONIC ANTI-BIOFILM AND IDR PEPTIDES” (priority 2013, published 2019)
Values joined by “and” are separate entries in the source; they are usually repeats but may differ in a detail not shown here. Equal entries are not always repeated. Where two headings read alike, the source gives them in different places. Ends that are not written are not given here. Peptide text beside a SMILES is read from it.

Legend:
P. aeruginosa biofilms = conditions: P. aeruginosa biofilm
Description: (§1) Peptides and various conventional antibiotics were analyzed by checkerboard titration into microtiter trays using CLSI methods (Wiegand, I., K. Hilpert, and R. E. W. Hancock. 2008. Nature Protocols 3:163-175), bacteria added and, after overnight incubation at 37° C., the residual biofilm assessed by the crystal violet method mentioned in the body of the grant, with an A595 of 0.2 considered as 100% biofilm inhibition. The effects of the peptide in reducing the minimal biofilm inhibitory concentration (MBIC) of the antibiotic and vice versa were assessed using the Fractional Inhibitory Concentration (FIC) method whereby ΣFTC=FICA+FICB=(CA/MICA)+(CB/MICB), where MBICA and MBICB are the MBICs of peptide A and antibiotic B alone, respectively, and CA and CB (expressed in μg/ml) are the MICs of the drugs in combination. This conventional clinical microbiology assay is interpreted as follows

A. baumannii biofilm = assay: checkerboard titration biofilm synergy (FIC); type: cell-based; conditions: for Fold decrease in antibiotic MIC in the presence of peptide: peptide DJK5
Description: as §1

K. pneumoniae biofilm = assay: checkerboard titration biofilm synergy (FIC); type: cell-based; conditions: for Fold decrease in antibiotic MIC in the presence of peptide: peptide DJK5
Description: as §1

Salmonella biofilm = assay: checkerboard titration biofilm synergy (FIC); type: cell-based; conditions: for Fold decrease in antibiotic MIC in the presence of peptide: peptide DJK5
Description: as §1

S. aureus biofilms = assay: checkerboard titration biofilm synergy (MBIC, FIC); type: cell-based; conditions: for MBIC: compound alone; for Fold decrease in antibiotic concentration / antibiotic MIC: in the presence of peptide DJK5
Description: as §1

E. coli biofilms = assay: checkerboard titration biofilm synergy (MBIC, FIC); type: cell-based; conditions: for MBIC: compound alone; for Fold decrease in antibiotic concentration: in the presence of peptide 1018; for Fold decrease in antibiotic concentration / antibiotic MIC: in the presence of peptide DJK5
Description: as §1

[1] = test system: Pseudomonas aeruginosa (Pa) biofilm; assay: static abiotic solid surface (microtiter, crystal violet) / Bioflux biofilm inhibition screen; type: cell-based
Description: FIG. 1. Identification of new anti-biofilm peptides active against P. aeruginosa using the microtiter plate screening method with crystal violet staining. […] As a control peptide 1037 was utilized [de la Fuente Nunez et al. 2011].
Methods of assessment of anti-biofilm activity—Biofilm formation was initially analyzed using a static abiotic solid surface assay as described elsewhere (de la Fuente-Nunez et al., 2012). Dilutions (1/100) of overnight cultures were incubated in BM2 biofilm-adjusted medium [62 mM potassium phosphate buffer (pH 7), 7 mM (NH4)2SO4, 2 mM MgSO4, 10 μM FeSO4, 0.4% (wt/vol) glucose, 0.5% (wt/vol) Casamino Acids], or a nutrient medium such as Luria Broth, in polypropylene microtiter plates (Falcon, United States) in the absence (control) or presence of peptide. Peptide was added at time zero (prior to adding the diluted, overnight cultures) in varying concentrations, and the decrease in biofilm formation was recorded at 22-46 h for most bacteria. Planktonic cells were removed, biofilm cells adhering to the side of the tubes were stained with crystal violet, and absorbance at 595 nm was measured using a microtiter plate reader (Bio-Tek Instruments Inc., United States). Some peptides were screened against two Gram negative organisms, P. aeruginosa and K. pneumoniae using a Bioflux apparatus (AutoMate Scientific, Berkeley, Calif.; http://www.autom8.com/bioflux_biofilm.html), which allows for the high-throughput, real-time analysis of biofilms.

[2] = test system: human peripheral blood mononuclear cells (MCP-1); assay: MCP-1 chemokine production by ELISA; type: cell-based
Description: FIG. 19. High production of anti-infective chemokine MCP-1 by human peripheral blood mononuclear cells treated with peptides, as determined by ELISA after 24 hours of stimulation.
Venous blood (20 ml) from healthy volunteers was collected in Vacutainer® collection tubes containing sodium heparin as an anticoagulant (Becton Dickinson, Mississauga, ON) in accordance with UBC ethical approval and guidelines. Blood was diluted 1:1 with complete RPMI 1640 medium and separated by centrifugation over a Ficoll-Paque® Plus (Amersham Biosciences, Piscataway, N.J., USA) density gradient. White blood cells were isolated from the buffy coat, washed twice in RPMI 1640 complete medium, and the number of peripheral blood mononuclear cells (PBMC) was determined by Trypan blue exclusion. PBMC (5×10^5) were seeded into 12-well tissue culture dishes (Falcon; Becton Dickinson) at 0.75 to 1×10^6 cells/ml at 37° C. in 5% CO2. The above conditions were chosen to mimic conditions for circulating blood monocytes entering tissues at the site of infection via extravasation.
Following incubation of the cells under various treatment regimens, the tissue culture supernatants were centrifuged at 1000×g for 5 min, then at 10,000×g for 2 min to obtain cell-free samples. Supernatants were aliquoted and then stored at −20° C. prior to assay for various chemokines by capture ELISA (eBioscience and BioSource International Inc., CA, USA respectively)

[3] = antibiotic in combination with peptide 1018
[4] = antibiotic in combination with peptide DJK5
[5] = in combination with peptide 1018
[6] = in combination with peptide DJK5
[7] = in the presence of peptide 1018

Molecule: CC(C)(O/N=C(\C(=O)N[C@@H]1C(=O)N2C(C(=O)[O-])=C(C[n+]3ccccc3)CS[C@H]12)c1csc(N)n1)C(=O)O [Ceftazidime]
- FIC (P. aeruginosa biofilms; [3]): 0.38
- FIC (P. aeruginosa biofilms; [4]): 0.51 and 0.5
- Concentration of antibiotic at the FIC (P. aeruginosa biofilms; [5]): 1.4 µg/mL
- Concentration of antibiotic at the FIC (P. aeruginosa biofilms; [6]): 0.8 µg/mL
- FIC (A. baumannii biofilm; [3]): 0.37
- FIC (A. baumannii biofilm; [4]): 0.75
- Fold decrease in antibiotic MIC in the presence of peptide (A. baumannii biofilm): 2X
- FIC (K. pneumoniae biofilm; [3]): 0.75
- FIC (K. pneumoniae biofilm; [4]): 0.89
- Fold decrease in antibiotic MIC in the presence of peptide (K. pneumoniae biofilm): 16X
- FIC (Salmonella biofilm; [3]): 0.31
- FIC (Salmonella biofilm; [4]): 0.75
- Fold decrease in antibiotic MIC in the presence of peptide (Salmonella biofilm): 4X
- FIC (S. aureus biofilms; [3]): 0.16
- FIC (S. aureus biofilms; [4]): 0.375 and 0.38
- FIC (S. aureus biofilms; antibiotic in combination with peptide DJK6): 0.4
- MBIC (S. aureus biofilms): 256 µg/mL
- concentration of antibiotic at FIC (S. aureus biofilms; [5]): 8-8 μg/ml
- concentration of antibiotic at FIC (S. aureus biofilms; [6]): 32 µg/mL
- Fold decrease in antibiotic concentration (S. aureus biofilms; [7]): 32X
- Fold decrease in antibiotic concentration / antibiotic MIC (S. aureus biofilms): 8X
- Fold decrease in antibiotic concentration (S. aureus biofilms; in the presence of peptide DJK6): 8
- FIC (E. coli biofilms; [3]): 1
- FIC (E. coli biofilms; [4]): 0.542 and 0.54
- MBIC (E. coli biofilms): 0.4 µg/mL
- concentration of antibiotic at FIC (E. coli biofilms; [5]): 0.1 µg/mL
- concentration of antibiotic at FIC (E. coli biofilms; [6]): 0.2 µg/mL
- Fold decrease in antibiotic concentration (E. coli biofilms): 4X
- Fold decrease in antibiotic concentration / antibiotic MIC (E. coli biofilms): 2X

Molecule: N=C(N)NCCC[C@H](NC(=O)[C@H](CCCNC(=N)N)NC(=O)[C@H](Cc1c[nH]c2ccccc12)NC(=O)[C@H](Cc1c[nH]c2ccccc12)NC(=O)[C@H](CCCCN)NC(=O)[C@H](Cc1c[nH]c2ccccc12)NC(=O)[C@H](Cc1c[nH]c2ccccc12)NC(=O)[C@H](CCCNC(=N)N)NC(=O)[C@@H](N)CCCCN)C(N)=O [HHC36, reference compound] (H-KRWWKWWRR-NH2; N-terminus assumed)
- activity vs. biofilms ([1]; statement referring to Table 2): completely inactive

Molecule: CC[C@H](C)[C@H](NC(=O)[C@H](CCCNC(=N)N)NC(=O)[C@H](C)NC(=O)[C@@H](NC(=O)[C@H](CCCNC(=N)N)NC(=O)[C@H](C)NC(=O)[C@H](Cc1c[nH]c2ccccc12)NC(=O)[C@H](CCCNC(=N)N)NC(=O)[C@@H](N)C(C)C)C(C)C)C(=O)N[C@@H](CC(C)C)C(=O)N[C@@H](CCCNC(=N)N)C(=O)N[C@H](C(N)=O)C(C)C [HE3] (H-VRWARVARILRV-NH2; N-terminus assumed)
- Notes (IDR immunomodulatory activity) [2]: Weaker activity than 1018

Molecule: CC[C@H](C)[C@H](NC(=O)[C@H](C)N)C(=O)N[C@@H](CCCNC(=N)N)C(=O)N[C@H](C(=O)N[C@H](C(=O)N[C@@H](CCCNC(=N)N)C(=O)N[C@@H](C)C(=O)N[C@@H](CCCNC(=N)N)C(=O)N[C@@H](CC(C)C)C(=O)N[C@H](C(=O)N[C@@H](CCCNC(=N)N)C(=O)N[C@@H](CCCNC(=N)N)C(N)=O)C(C)C)C(C)C)C(C)C [Peptide 1009] (H-AIRVVRARLVRR-NH2; N-terminus assumed)
- % Biofilm Inhibition Pa ([1]; Pa) biofilm, 10 μg/ml): 54%

Molecule: CC[C@H](C)[C@H](NC(=O)[C@H](Cc1c[nH]c2ccccc12)NC(=O)[C@H](CCCNC(=N)N)NC(=O)[C@@H](N)CCCNC(=N)N)C(=O)N[C@@H](CCCNC(=N)N)C(=O)N[C@H](C(=O)N[C@@H](C)C(=O)N[C@H](C(=O)N[C@H](C(=O)N[C@@H](CC(C)C)C(=O)N[C@@H](CCCNC(=N)N)C(=O)N[C@H](C(N)=O)C(C)C)[C@@H](C)CC)C(C)C)C(C)C [HE1]
- MCP-1 induction ([2]; 24 hours of stimulation, lowest peptide concentration 20 μg/ml): clearly superior to peptide 1018

Molecule: C[C@@H](O)[C@H]1C(=O)N2C(C(=O)O)=C(SCCN=CN)C[C@H]12 [Imipenem]
- FIC (P. aeruginosa biofilms; [3]): 0.502 and 0.5
- FIC (P. aeruginosa biofilms; [4]): 0.51 and 0.5
- Concentration of antibiotic at the FIC (P. aeruginosa biofilms; [5]): 0.8 µg/mL
- Concentration of antibiotic at the FIC (P. aeruginosa biofilms; [6]): 0.8 µg/mL
- FIC (A. baumannii biofilm; [3]): 0.53
- FIC (A. baumannii biofilm; [4]): 0.75
- Fold decrease in antibiotic MIC in the presence of peptide (A. baumannii biofilm): 2X
- FIC (K. pneumoniae biofilm; [3]): 0.53
- FIC (K. pneumoniae biofilm; [4]): 1
- Fold decrease in antibiotic MIC in the presence of peptide (K. pneumoniae biofilm): 64X
- FIC (Salmonella biofilm; [3]): 1
- FIC (Salmonella biofilm; [4]): 1
- Fold decrease in antibiotic MIC in the presence of peptide (Salmonella biofilm): 2X
- FIC (S. aureus biofilms; [3]): 0.25
- FIC (S. aureus biofilms; [4]): 0.52
- MBIC (S. aureus biofilms): >102.4 µg/mL
- concentration of antibiotic at FIC (S. aureus biofilms; [5]): 25.6 µg/mL
- concentration of antibiotic at FIC (S. aureus biofilms; [6]): 3.2 µg/mL
- Fold decrease in antibiotic concentration (S. aureus biofilms; [7]): 4X
- Fold decrease in antibiotic concentration / antibiotic MIC (S. aureus biofilms): 32X
- FIC (E. coli biofilms; [3]): 0.75
- FIC (E. coli biofilms; [4]): 1
- MBIC (E. coli biofilms): 6.4 µg/mL
- concentration of antibiotic at FIC (E. coli biofilms; [5]): 1.6 µg/mL
- concentration of antibiotic at FIC (E. coli biofilms; [6]): 0.1 µg/mL
- Fold decrease in antibiotic concentration (E. coli biofilms): 4X
- Fold decrease in antibiotic concentration / antibiotic MIC (E. coli biofilms): 64X

Molecule: VRFRIWRR (VRFRIWRR-NH2) [EH2]
- Notes (IDR immunomodulatory activity) [2]: Weaker activity than 1018

Molecule: RVLIRVARRVIW (RVLIRVARRVIW-NH2) [HE9]
- Notes (IDR immunomodulatory activity) [2]: Weaker activity than 1018

Molecule: CC[C@H](C)[C@H](NC(=O)[C@H](CCCNC(=N)N)NC(=O)[C@H](C)NC(=O)[C@H](CC(C)C)NC(=O)[C@@H](N)CCCNC(=N)N)C(=O)N[C@H](C(=O)N[C@H](C(=O)N[C@H](C(=O)N[C@@H](CCCNC(=N)N)C(=O)N[C@H](C(=O)N[C@@H](CCCNC(=N)N)C(=O)N[C@@H](CCCNC(=N)N)C(N)=O)C(C)C)[C@@H](C)CC)C(C)C)C(C)C [Peptide E3] (H-RLARIVVIRVRR-NH2; N-terminus assumed)
- % Biofilm Inhibition Pa ([1]; Pa) biofilm, 10 μg/ml): 47%

Molecule: CC[C@H](C)[C@H](NC(=O)[C@H](CC(C)C)NC(=O)[C@@H]1CCCN1C(=O)[C@H](CCCCN)NC(=O)[C@H](C)NC(=O)[C@@H](NC(=O)[C@@H](NC(=O)[C@@H](NC(=O)[C@@H](NC(=O)[C@H](CCCCN)NC(=O)[C@H](CCCCN)NC(=O)[C@H](C)NC(=O)[C@H](C)NC(=O)[C@H](CO)NC(=O)[C@@H](NC(=O)[C@H](CC(C)C)NC(=O)[C@H](CCCCN)NC(=O)[C@H](CCCCN)NC(=O)[C@@H](NC(=O)[C@H](Cc1ccccc1)NC(=O)[C@H](CO)NC(=O)[C@H](CCCCN)NC(=O)[C@H](Cc1c[nH]c2ccccc12)NC(=O)[C@@H](N)CCCCN)[C@@H](C)CC)[C@@H](C)O)C(C)C)C(C)C)[C@@H](C)O)[C@@H](C)O)C(=O)N[C@@H](CO)C(=O)N[C@@H](CO)C(N)=O [CP26] (H-KWKSFIKKLTSAAKKVVTTAKPLISS-NH2; N-terminus assumed)
- % Biofilm Inhibition Pa ([1]; peptide 10 μg/ml): 62%

Molecule: VRLIRVWRVIRK (VRLIRVWRVIRK-NH2) [HE7]
- Notes (IDR immunomodulatory activity) [2]: No secretion of MCP-1

Molecule: VRRIWRR (VRRIWRR-NH2) [EH1]
- Notes (IDR immunomodulatory activity) [2]: Weaker activity than 1018
